Here are results for 36 compounds from patent US6071966A, “1-amino-alkylcyclohexane NMDA receptor antagonists” (Merz + Co. GmbH & Co., priority 1998, dated 2000).

Series [1] can be described thus: Traction reflex test (myorelaxant action). In kind it is in vivo. The conditions noted are these: mouse, traction reflex versus mes, ip; mice, i.p.; Table 8; read-out: TI Tract. (ED50 traction reflex impairment / ED50 MES). On the procedure:
(§1) NMR female mice (18-28 g) housed 5 per cage were used for the maximal electroshock (MES) and motor impairment tests. […] All compounds were dissolved in 0.9% saline.
(§2) The MES test was performed together with tests for myorelaxant action (traction reflex) and motor coordination (rotarod). For the traction reflex test mice were placed with their forepaws on a horizontal rod and were required to place all 4 paws on the wire within 10 seconds. To test ataxia (motor coordination) mice were placed on rotarod (5 rpm) and were required to remain on the rod for 1 minute. […] These tests were followed by MES (100 Hz, 0.5 second shock duration, 50 mA shock intensity, 0.9 ms impulse duration, Ugo Basile) applied through corneal electrodes. The presence of tonic convulsions was scored (tonic extension of hind paws with minimum angle to the body of 90°). The aim was to obtain ED50 s for all parameters scored (anticonvulsive activity and motor side effects) with use of the Litchfield Wilcoxon test for quantal dose responses. Division of the ED50 for side effects (ataxia or myorelaxation) by the ED50 for antagonism of electroshock convulsions was used as a therapeutic index (TI). […]

Series [2] is described as follows: Rotarod test (motor coordination, ataxia). Type of series: in vivo. The conditions noted are these: mouse, ip, mice, i.p., Table 8, read-out: TI Rot. (ED50 rotarod failure / ED50 MES). The protocol:
All compounds were dissolved in 0.9% saline.
(§3) The MES test was performed together with tests for myorelaxant action (traction reflex) and motor coordination (rotarod). For the traction reflex test mice were placed with their forepaws on a horizontal rod and were required to place all 4 paws on the wire within 10 seconds. To test ataxia (motor coordination) mice were placed on rotarod (5 rpm) and were required to remain on the rod for 1 minute. […] These tests were followed by MES (100 Hz, 0.5 second shock duration, 50 mA shock intensity, 0.9 ms impulse duration, Ugo Basile) applied through corneal electrodes. The presence of tonic convulsions was scored (tonic extension of hind paws with minimum angle to the body of 90°). The aim was to obtain ED50 s for all parameters scored (anticonvulsive activity and motor side effects) with use of the Litchfield Wilcoxon test for quantal dose responses. Division of the ED50 for side effects (ataxia or myorelaxation) by the ED50 for antagonism of electroshock convulsions was used as a therapeutic index (TI).
(§4) Pearson product moment correlation analysis (Sigma Stat, Jandel Scientific) was used to compare in vitro potencies and in vivo anticonvulsant activity.
A general note: Falling from the rotarod earlier than controls is read as motor impairment.

Another series has as its target NMDA receptor. The series is described as follows: [3H]-(+)-MK-801 receptor binding to rat cortical membranes. The conditions noted are these: read-out: [3H]MK-801 IC50, [3H]-(+)-MK-801 5 nM, Table 7. On the procedure: Male Sprague-Dawley rats (200-250 g) were decapitated and their brains were removed rapidly. The cortex was dissected and homogenized in 20 volumes of ice-cold 0.32 M sucrose using a glass-Teflon homogenizer. The homogenate was centrifuged at 1000×g for 10 minutes. The pellet was discarded and the supernatant centrifuged at 20,000×g for 20 minutes. The resulting pellet was re-suspended in 20 volumes of distilled water and centrifuged for 20 minutes at 8000×g. Then the supernatant and the buffy coat were centrifuged three times (48,000×g for 20 minutes) in the presence of 50 mM Tris-HCl, pH 8.0. All centrifugation steps were carried out at 4° C. After resuspension in 5 volumes of 50 mM Tris-HCl, pH 8.0 the membrane suspension was frozen rapidly at -80° C. On the day of assay the membranes were thawed and washed four times by resuspension in 50 mM Tris-HCl, pH 8.0 and centrifugation at 48,000×g for 20 minutes. The final pellet was suspended in assay buffer. The amount of protein in the final membrane preparation was determined according to the method of Lowry with some modifications. The final protein concentration used for our studies was between 250-500 μg/ml.
Membranes were re-suspended and incubated in 50 mM Tris-HCl, pH 8.0. […] Incubations were terminated using a Millipore filter system. The samples were rinsed three times with 2.5 ml ice cold assay buffer over glass fiber filters obtained from Schleicher & Schuell under a constant vacuum. Filtration was performed as rapidly as possible. Following separation and rinse, the filters were placed into scintillation liquid (5 ml; Ultima Gold) and radioactivity retained on the filters was determined with a conventional liquid scintillation counter (Hewlett Packard, Liquid Scintillation Analyser).
IC50 s in patch clamp, excitotoxicity, and binding studies were calculated according to the four parameter alogistic equation using the Grafit computer program (Erithacus Software, England). Ki value for binding studies were then determined according to Cheng and Prusoff. Binding values presented are means ±SEM of 3-5 determinations (each performed in duplicate).

For series [3] the following is noted: i.p.; Table 8.
Series [4] deals with MES-induced convulsions in mice. The series is described as follows: Anticonvulsive activity: maximal electroshock (MES) test. In kind it is in vivo. Particulars: for ED50: Mus musculus, ip, 0.5 h; for MES ED50: i.p., Table 8, 30 min. On the procedure: as §1, §3, §4
For a further series, the system named is traction reflex in mice. The series is described as follows: Traction reflex test (myorelaxant action). In kind it is in vivo. The conditions noted are these: i.p., Table 8. The protocol:
as §1, §2

Bounds are passed on as bounds.

`C[C@@H]1CC(C)(C)C[C@@](C)(N)C1` (relative stereo) [Mrz 2/607]: the results for the selectivity ratio in series [1] and in series [2] (rotarod versus mes) were 1.3 and 1.7, respectively.

`CCC[C@@]1(C)C[C@H](C)C[C@@](C)(N)C1` (relative stereo) [Mrz 2/618]: the selectivity ratio in series [1] turned out to be 1.2; in series [2] (rotarod versus mes), 1.1.

As for `CCC[C@]1(C)C[C@@H](C)C[C@@](C)(N)C1` (relative stereo) [Mrz 2/619], the selectivity ratio in series [1] and in series [2] (rotarod versus mes) was 1 each time.

As a reminder, the IC50 is the concentration at which inhibition is half-maximal. For `CC[C@@]1(C)C[C@H](C)C[C@@](C)(N)C1` (relative stereo) [Mrz 2/622], on NMDA receptor, the IC50 amounted to 150 µM. In addition, the selectivity ratio in series [1] was found to be 1.1; in series [2] (rotarod versus mes), 1.7.

On to `CC[C@]1(C)C[C@@H](C)C[C@@](C)(N)C1` (relative stereo) [Mrz 2/624], for which the selectivity ratio in series [1] is 0.9; in series [2] (rotarod versus mes), 1.

With `C[C@@H]1CCC[C@@](C)(N)C1` (relative stereo) [Mrz 2/625], the values for the selectivity ratio in series [1] and in series [2] (rotarod versus mes) were 0.5 and 1.2, respectively.

As for `CCC[C@@H]1CCC[C@@](C)(N)C1` (relative stereo) [Mrz 2/627], the values for the selectivity ratio in series [1] and in series [2] (rotarod versus mes) were 0.8 and 1, respectively.

As for `CCC[C@H]1CCC[C@@](C)(N)C1` (relative stereo) [Mrz 2/628], the selectivity ratio worked out at 0.8 in series [1] and 1.6 in series [2] (rotarod versus mes).

For the compound `CC[C@@H]1CCC[C@@](C)(N)C1` (relative stereo) [Mrz 2/629], the selectivity ratio in series [1] and in series [2] (rotarod versus mes) was 0.9 throughout.

Take `CC[C@H]1CCC[C@@](C)(N)C1` (relative stereo) [Mrz 2/630]: the IC50 at NMDA receptor was determined as 443 µM. The “Min Lethality” value in series [3] is over 30 mg/kg.

Regarding `C[C@H]1CCC[C@@](C)(N)C1` (relative stereo) [Mrz 2/631], the “Min Lethality” value in series [3] was over 30 mg/kg.

As to `CC[C@H]1CC(C)(C)C[C@@](C)(N)C1` (relative stereo) [Mrz 2/632], the selectivity ratio in series [1] worked out at 2.7; in series [2] (rotarod versus mes), 3.4.

`CC[C@@H]1CC(C)(C)C[C@@](C)(N)C1` (relative stereo) [Mrz 2/633]: the selectivity ratio in series [1] came to 2.4; in series [2] (rotarod versus mes), 3.

As a reminder, the ED50 is the dose that gives a 50% effect, or the effect in half of the subjects. For the compound `CCC[C@H]1CC(C)(C)C[C@@](C)(N)C1` (relative stereo) [Mrz 2/634], the ED50 was over 30 mg/kg in series [4] (Table 8) and over 30 mg/kg in series [4] (i.p. 30 min before, Table 7). In addition, in series [3], the “Min Lethality” value was over 30 mg/kg.

In the case of `CCC[C@@H]1CC(C)(C)C[C@@](C)(N)C1` (relative stereo) [Mrz 2/635], the figures for the selectivity ratio in series [1] and in series [2] (rotarod versus mes) were 1.3 and 1.4, respectively.

As for `C[C@H]1CC(C)(C)C[C@@](C)(N)C1` (relative stereo) [Mrz 2/643], the ED50 in series [4] (i.p. 30 min before, Table 7) amounted to 16.6 mg/kg. Also, the “TI Tract. (ED50 traction reflex impairment / ED50 MES)” value in the series on traction reflex in mice came out at 1.3.

With `C[C@@H]1C[C@H](C)C[C@@](C)(N)C1` [MRZ 2/680, 1-amino-1(trans),3(trans),5-trimethylcyclohexane], the “TI Tract. (ED50 traction reflex impairment / ED50 MES)” value with traction reflex in mice is 0.7.

Consider `C[C@@H]1C[C@H](C)C[C@](C)(N)C1` [MRZ 2/681, 1-amino-1(cis),3(cis),5-trimethylcyclohexane], for which, in the series with traction reflex in mice, the “TI Tract. (ED50 traction reflex impairment / ED50 MES)” value was determined as 2.1. For the same compound, the selectivity ratio in series [2] (rotarod versus mes) was found to be 5.3.

For the compound `CC[C@H]1CC(C)(C)C[C@](C)(N)C1` [MRZ 2/682, 1-amino-(1R,5S)trans-3-ethyl-1,5,5-trimethylcyclohexane], in the series with traction reflex in mice, the “TI Tract. (ED50 traction reflex impairment / ED50 MES)” value is 2.7.

As for `CC[C@H]1CC(C)(C)C[C@@](C)(N)C1` [MRZ 2/683, 1-amino-(1S,5S)cis-3-ethyl-1,5,5-trimethylcyclohexane], the “TI Tract. (ED50 traction reflex impairment / ED50 MES)” value in the series on traction reflex in mice came out at 2.7.

Consider `CC1(C)CC(N)CC(C)(C)C1` [Mrz 2/557], for which the figures for the selectivity ratio in series [1] and in series [2] (rotarod versus mes) were 1 and 1.4, respectively.

Regarding `CC1(C)CC(CN)CC(C)(C)C1.Cl` [Mrz 2/580, 3,3,5,5-tetramethylcyclohexylmethylamine hydrochloride], the selectivity ratio is 1.6 in series [1] and 1.3 in series [2] (rotarod versus mes). Moreover, the “Min Lethality” value in series [3] came out at 50 mg/kg.

Turning to `CCCC1(N)CC(C)(C)CC(C)(C)C1` [Mrz 2/601, 1-amino-1-propyl-3,3,5,5-tetramethylcyclohexane], the “MES ED50” value in series [4] was determined as 15.6 mg/kg i.p. Moreover, the selectivity ratio in series [1] and in series [2] (in vivo) was 1.5 in each case. In addition, the “Min Lethality” value in series [3] is 50 mg/kg.

As for `CCCC1(C)CC(C)(C)CC(C)(N)C1` (stereo not shown) [Mrz 2/614], in the series with traction reflex in mice, the “TI Tract. (ED50 traction reflex impairment / ED50 MES)” value was 1.9.

In the case of `CCC1(C)CC(C)(C)CC(C)(N)C1` (stereo not shown) [Mrz 2/615, 1-amino-1,3,5,5-tetramethyl-3-ethylcyclohexane], the selectivity ratio in series [1] was 2.5; in series [2] (rotarod versus mes), 3.2. The “Min Lethality” value in series [3] was determined as 50 mg/kg.

With `CCCC1(C)CCCC(C)(N)C1` (stereo not shown) [Mrz 2/617], the “TI Tract. (ED50 traction reflex impairment / ED50 MES)” value with traction reflex in mice came to 1.1.

With `CCC1(C)CCCC(C)(N)C1` (stereo not shown) [Mrz 2/620], the “TI Tract. (ED50 traction reflex impairment / ED50 MES)” value with traction reflex in mice is on record as 1.6. Moreover, the selectivity ratio in series [2] (rotarod versus mes) was 1.1.

Regarding `CCC1(CC)CC(C)(C)CC(C)(N)C1` (stereo not shown) [Mrz 2/623, 1-amino-1,5,5-trimethyl-3,3-diethylcyclohexane], the selectivity ratio came to 1.4 in series [1] and 1.8 in series [2] (rotarod versus mes). Further, in series [3], the “Min Lethality” value is on record as over 30 mg/kg.

Take `CCCC1(CCC)CC(C)(C)CC(C)(N)C1` (stereo not shown) [Mrz 2/626]: the “TI Tract. (ED50 traction reflex impairment / ED50 MES)” value in the series on traction reflex in mice is 1.1.

With `CCNC1(C)CC(C)(C)CC(C)(C)C1` [Mrz 2/639, N-ethyl-1-amino-1,3,3,5,5-pentamethylcyclohexane], the selectivity ratio worked out at 2.6 in series [1] and 4.4 in series [2] (rotarod versus mes). In series [3], the “Min Lethality” value worked out at 30 mg/kg.

Turning to `CNC1(C)CC(C)(C)CC(C)(C)C1.Cl` [Mrz 2/640, N,1,3,3,5,5-hexamethylcyclohexanamine hydrochloride], the selectivity ratio was 2.3 in series [1] and 3.3 in series [2] (rotarod versus mes). For the same compound, in series [3], the “Min Lethality” value stood at 108 mg/kg.

Regarding `CC1(N)CCCCC1` [Mrz 2/641], in series [3], the “Min Lethality” value is over 50 mg/kg.

Regarding `CN(C)C1(C)CC(C)(C)CC(C)(C)C1` [Mrz 2/642], the “MES ED50” value in series [4] came out at 8.04 mg/kg i.p. For the same compound, the results for the selectivity ratio in series [1] and in series [2] (in vivo) were 4.1 and 5.3, respectively.

Turning to `CC1(C)CC(CCN)CC(C)(C)C1` [Mrz 2/644], the selectivity ratio was found to be 0.5 in series [1] and 0.6 in series [2] (rotarod versus mes).

Turning to `CC(C)(N)CC1CC(C)(C)CC(C)(C)C1` [Mrz 2/645], the “TI Tract. (ED50 traction reflex impairment / ED50 MES)” value with traction reflex in mice is given as 0.6.

Consider `CC1(C)CC(C)(C)CC(C)(CCN)C1` [Mrz 2/662], for which the selectivity ratio worked out at 1 in series [1] and 1.2 in series [2] (rotarod versus mes).
